Experimental data from ChEMBL document CHEMBL1201862, “PubChem BioAssay data set” (2004).
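Where inhibition never reached the appropriate level, the endpoint shown equals the highest concentration tested. Otherwise, values were interpolated linearly from a five-concentration, 48-hour dose response in 96-well plates. Abbreviation: GI50, concentration required for 50% inhibition of growth.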 Calls of active or inactive are those of the source. Cut-off read from the data, not from the text of the source: active = GI50 up to about 1.1 µM and inactive = higher.

Key:
Assay in all cases: DTP human tumour cell line panel, 48 h
MOLT-4 = test system: MOLT-4
HCT-116 = test system: HCT-116
EKVX = test system: EKVX
IGROV-1 = test system: IGROV-1
PC-3 = test system: PC-3
SR = test system: SR
UO-31 = test system: UO-31
KM12 = test system: KM12
TK-10 = test system: TK-10
MDA-N = test system: MDA-N
SNB-19 = test system: SNB-19
SK-MEL-28 = test system: SK-MEL-28
SK-OV-3 = test system: SK-OV-3
DU-145 = test system: DU-145
SN12C = test system: SN12C
SNB-75 = test system: SNB-75
RPMI-8226 = test system: RPMI-8226
BT-549 = test system: BT-549
Hs-578T = test system: Hs-578T
OVCAR-5 = test system: OVCAR-5
K562 = test system: K562
OVCAR-4 = test system: OVCAR-4
SW-620 = test system: SW-620
MCF7 = test system: MCF7
U-251 = test system: U-251
M14 = test system: M14
SK-MEL-5 = test system: SK-MEL-5
NCI/ADR-RES = test system: NCI/ADR-RES
RXF 393 = test system: RXF 393
UACC-257 = test system: UACC-257
LOX IMVI = test system: LOX IMVI
T47D = test system: T47D
HOP-92 = test system: HOP-92
NCI-H23 = test system: NCI-H23
SF-295 = test system: SF-295
HT-29 = test system: HT-29
SF-539 = test system: SF-539
CAKI-1 = test system: CAKI-1
CCRF-CEM = test system: CCRF-CEM
OVCAR-3 = test system: OVCAR-3
MDA-MB-435 = test system: MDA-MB-435
SK-MEL-2 = test system: SK-MEL-2
NCI-H460 = test system: NCI-H460
COLO 205 = test system: COLO 205
A498 = test system: A498
UACC-62 = test system: UACC-62
HCC 2998 = test system: HCC 2998
A549 = test system: A549
MDA-MB-231 = test system: MDA-MB-231
HOP-62 = test system: HOP-62
ACHN = test system: ACHN
786-0 = test system: 786-0
SF-268 = test system: SF-268
HL-60 = test system: HL-60
HCT-15 = test system: HCT-15
NCI-H226 = test system: NCI-H226
OVCAR-8 = test system: OVCAR-8
Malme-3M = test system: Malme-3M

Measured: GI50

c1ccc2c(c1)nc1n2CNC1
> 100 µM: HCT-15
inactive: MOLT-4 > 100 µM | HCT-116 > 100 µM | EKVX > 100 µM | IGROV-1 > 100 µM | PC-3 > 100 µM | SR > 100 µM | UO-31 > 100 µM | KM12 > 100 µM | TK-10 > 100 µM | MDA-N > 100 µM | SNB-19 > 100 µM | SK-MEL-28 > 100 µM | SK-OV-3 > 100 µM | DU-145 > 100 µM | SN12C > 100 µM | SNB-75 > 100 µM | RPMI-8226 > 100 µM | BT-549 > 100 µM | Hs-578T > 100 µM | OVCAR-5 > 100 µM | K562 > 100 µM | OVCAR-4 > 100 µM | SW-620 > 100 µM | MCF7 > 100 µM | U-251 > 100 µM | M14 > 100 µM | SK-MEL-5 > 100 µM | NCI/ADR-RES > 100 µM | RXF 393 > 100 µM | UACC-257 > 100 µM | LOX IMVI > 100 µM | T47D > 100 µM | HOP-92 > 100 µM | NCI-H23 > 100 µM | SF-295 > 100 µM | HT-29 > 100 µM | SF-539 > 100 µM | CAKI-1 > 100 µM | CCRF-CEM > 100 µM | OVCAR-3 > 100 µM | MDA-MB-435 > 100 µM | SK-MEL-2 > 100 µM | NCI-H460 54.6 µM | COLO 205 > 100 µM | A498 > 100 µM | UACC-62 > 100 µM | HCC 2998 > 100 µM | A549 > 100 µM | MDA-MB-231 > 100 µM | HOP-62 > 100 µM | ACHN > 100 µM | 786-0 > 100 µM | SF-268 > 100 µM | HL-60 > 100 µM

O=C(N/S(=N/S(=O)(=O)c1ccc(Br)cc1)C(Cl)(Cl)Cl)c1ccccc1 (stereo not given)
inactive: MOLT-4 > 100 µM | HCT-116 > 100 µM | EKVX > 100 µM | IGROV-1 > 100 µM | PC-3 > 100 µM | SR 70 µM | UO-31 > 100 µM | KM12 > 100 µM | TK-10 > 100 µM | MDA-N > 100 µM | NCI-H226 > 100 µM | SNB-19 > 100 µM | SK-MEL-28 > 100 µM | SK-OV-3 > 100 µM | DU-145 > 100 µM | SN12C > 100 µM | SNB-75 23.3 µM | RPMI-8226 > 100 µM | BT-549 > 100 µM | Hs-578T > 100 µM | OVCAR-8 > 100 µM | OVCAR-5 > 100 µM | K562 > 100 µM | Malme-3M > 100 µM | OVCAR-4 > 100 µM | SW-620 > 100 µM | MCF7 > 100 µM | U-251 > 100 µM | M14 > 100 µM | SK-MEL-5 > 100 µM | NCI/ADR-RES > 100 µM | RXF 393 > 100 µM | UACC-257 > 100 µM | LOX IMVI > 100 µM | T47D > 100 µM | HOP-92 26.2 µM | NCI-H23 > 100 µM | SF-295 > 100 µM | HT-29 > 100 µM | SF-539 > 100 µM | CCRF-CEM > 100 µM | OVCAR-3 > 100 µM | MDA-MB-435 > 100 µM | SK-MEL-2 > 100 µM | NCI-H460 > 100 µM | COLO 205 > 100 µM | A498 > 100 µM | UACC-62 > 100 µM | A549 > 100 µM | MDA-MB-231 > 100 µM | HOP-62 > 100 µM | ACHN > 100 µM | 786-0 > 100 µM | SF-268 > 100 µM
> 100 µM: HCT-15
